Like-named read-outs stand apart in the source and are kept apart here.
Experiments:
[1] = test system: IL-2 stimulated pSTAT5 in Tall-1 T cells; assay: Cellular JAK3 potency assay: inhibition of IL-2 stimulated pSTAT5 in Tall-1 T cells; format: cell-based, human; conditions: for IC50: Homo sapiens, read-out: Tall-1 (pIC50) (converted); for Tall-1 (pIC50): IL-2 stimulated pSTAT5, Tall-1 T cells
Summary of the method: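 Tall-1 human T cells (45,000/well) in phenol red-free DMEM with 10% FBS were preincubated with compound 1 h at 37 °C, then stimulated with IL-2 (final 300 ng/ml) for 30 min. Lysate pSTAT5 read by AlphaLisa; IC50 from inhibition curves, reported as pIC50 (mean±SD).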

Tyk2 = target: T1, Tyk2 (Homo sapiens, UniProt P29597); assay: Biochemical Tyk2 kinase assay (LanthaScreen); conditions: for Ki: read-out: Tyk 2 (pKi) (converted)
T1 construct: GST; purchased Life Technologies
Summary of the method: (§1)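 GST-tagged JAK enzyme and GFP-STAT1 peptide preincubated with compound 1 h, then ATP added; 1 h kinase reaction at ambient temperature, pH 7.5 HEPES/MgCl2 buffer, 1% DMSO. Tb-anti-pSTAT1 (pTyr701) TR-FRET, 520/495 nm ratio; IC50 from 4-parameter fit, converted to pKi via Cheng-Prusoff.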

JAK3 = target: T2, JAK3 (Homo sapiens, UniProt P52333); assay: Biochemical JAK3 kinase assay (LanthaScreen); parameters: GST; purchased Life Technologies; conditions: for Ki: read-out: JAK 3 (pKi) (converted)
T2 sequence (P52333 1-1124): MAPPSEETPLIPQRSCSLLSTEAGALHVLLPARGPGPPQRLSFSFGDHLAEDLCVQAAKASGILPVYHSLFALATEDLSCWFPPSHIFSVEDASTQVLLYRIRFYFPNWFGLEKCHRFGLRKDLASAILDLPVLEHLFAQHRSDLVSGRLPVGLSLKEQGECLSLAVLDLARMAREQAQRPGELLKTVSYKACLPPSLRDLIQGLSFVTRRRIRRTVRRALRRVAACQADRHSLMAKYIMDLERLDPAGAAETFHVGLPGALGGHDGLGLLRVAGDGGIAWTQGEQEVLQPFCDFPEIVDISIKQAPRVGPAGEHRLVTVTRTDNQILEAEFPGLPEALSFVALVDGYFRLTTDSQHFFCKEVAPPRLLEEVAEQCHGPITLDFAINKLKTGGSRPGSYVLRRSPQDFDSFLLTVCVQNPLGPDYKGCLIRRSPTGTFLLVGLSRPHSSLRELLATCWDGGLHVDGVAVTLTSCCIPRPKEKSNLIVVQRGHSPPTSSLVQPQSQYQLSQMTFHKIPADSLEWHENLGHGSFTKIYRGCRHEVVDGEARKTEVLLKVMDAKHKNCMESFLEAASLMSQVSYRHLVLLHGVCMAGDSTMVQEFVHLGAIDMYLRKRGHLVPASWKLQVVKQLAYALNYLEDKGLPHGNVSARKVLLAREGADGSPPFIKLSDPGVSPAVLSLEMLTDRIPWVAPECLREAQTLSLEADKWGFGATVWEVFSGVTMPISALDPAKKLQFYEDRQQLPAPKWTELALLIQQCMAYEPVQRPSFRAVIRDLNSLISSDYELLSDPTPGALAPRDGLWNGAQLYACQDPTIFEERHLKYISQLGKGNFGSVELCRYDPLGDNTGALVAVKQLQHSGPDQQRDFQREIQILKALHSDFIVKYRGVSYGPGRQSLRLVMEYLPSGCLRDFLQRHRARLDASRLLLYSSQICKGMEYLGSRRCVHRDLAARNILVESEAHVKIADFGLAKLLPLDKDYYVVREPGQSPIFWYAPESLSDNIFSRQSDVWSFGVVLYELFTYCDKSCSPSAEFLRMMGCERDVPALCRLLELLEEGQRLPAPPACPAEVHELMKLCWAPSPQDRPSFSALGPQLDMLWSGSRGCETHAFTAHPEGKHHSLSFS
Summary of the method: as §1

JAK1 = target: T3, JAK1 (Homo sapiens, UniProt P23458); assay: Biochemical JAK1 kinase assay (LanthaScreen); conditions: for Ki: read-out: JAK 1 (pKi) (converted)
T3 construct: GST; purchased Life Technologies
Summary of the method: as §1

JAK2 = target: T4, JAK2 (Homo sapiens, UniProt O60674); assay: Biochemical JAK2 kinase assay (LanthaScreen); conditions: for Ki: read-out: JAK 2 (pKi) (converted)
T4 construct: GST; purchased Life Technologies
Summary of the method: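 GST-tagged recombinant JAK2 pre-incubated 1 h at ambient temperature with compound and GFP-STAT1 peptide in HEPES pH 7.5/MgCl2 buffer, then ATP added for a 1 h reaction with 1% DMSO. TR-FRET read after EDTA and Tb-anti-pSTAT1 (pTyr701) addition; IC50 from 4-parameter fit, converted to pKi by Cheng-Prusoff.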

[2] = TALL-1, IL-2 stimulated pSTAT5, Tall-1 T cells
[3] = selectivity JAK3 over JAK1, difference of pKi
[4] = TALL-1, IL-2 stimulated pSTAT5 in Tall-1 T cells
[5] = selectivity: difference of pKi JAK3 and pKi JAK1

T3 sequence (P23458 whole entry): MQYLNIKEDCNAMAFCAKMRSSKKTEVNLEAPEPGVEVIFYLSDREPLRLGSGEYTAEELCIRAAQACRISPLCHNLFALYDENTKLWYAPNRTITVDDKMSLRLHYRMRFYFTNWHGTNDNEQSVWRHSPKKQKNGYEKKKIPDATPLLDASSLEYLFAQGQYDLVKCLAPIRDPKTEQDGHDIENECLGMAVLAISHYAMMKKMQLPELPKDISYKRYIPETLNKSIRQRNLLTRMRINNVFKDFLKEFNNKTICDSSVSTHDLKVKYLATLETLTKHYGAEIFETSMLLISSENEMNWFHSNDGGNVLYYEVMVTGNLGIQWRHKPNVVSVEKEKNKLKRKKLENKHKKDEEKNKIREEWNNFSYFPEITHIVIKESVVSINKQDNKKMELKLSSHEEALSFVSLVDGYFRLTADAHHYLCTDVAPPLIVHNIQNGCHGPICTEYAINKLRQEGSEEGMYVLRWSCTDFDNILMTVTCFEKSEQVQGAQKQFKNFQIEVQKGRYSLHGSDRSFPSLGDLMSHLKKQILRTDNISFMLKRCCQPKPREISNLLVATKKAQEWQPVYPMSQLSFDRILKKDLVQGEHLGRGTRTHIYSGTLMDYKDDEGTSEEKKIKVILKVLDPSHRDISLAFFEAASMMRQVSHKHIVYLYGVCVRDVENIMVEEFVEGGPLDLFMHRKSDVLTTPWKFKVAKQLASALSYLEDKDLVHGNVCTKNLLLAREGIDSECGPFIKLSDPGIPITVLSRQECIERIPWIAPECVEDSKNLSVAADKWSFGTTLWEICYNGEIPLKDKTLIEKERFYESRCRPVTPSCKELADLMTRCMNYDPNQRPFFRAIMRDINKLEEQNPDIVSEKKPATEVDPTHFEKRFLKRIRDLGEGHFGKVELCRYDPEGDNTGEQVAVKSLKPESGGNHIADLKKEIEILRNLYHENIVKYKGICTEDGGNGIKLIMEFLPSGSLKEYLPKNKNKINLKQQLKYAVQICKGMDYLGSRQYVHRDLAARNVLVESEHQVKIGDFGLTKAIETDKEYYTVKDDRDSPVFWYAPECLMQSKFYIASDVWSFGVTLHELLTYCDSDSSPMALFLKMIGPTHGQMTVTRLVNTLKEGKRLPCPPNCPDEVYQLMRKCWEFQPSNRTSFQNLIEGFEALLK
T4 sequence (O60674 whole entry): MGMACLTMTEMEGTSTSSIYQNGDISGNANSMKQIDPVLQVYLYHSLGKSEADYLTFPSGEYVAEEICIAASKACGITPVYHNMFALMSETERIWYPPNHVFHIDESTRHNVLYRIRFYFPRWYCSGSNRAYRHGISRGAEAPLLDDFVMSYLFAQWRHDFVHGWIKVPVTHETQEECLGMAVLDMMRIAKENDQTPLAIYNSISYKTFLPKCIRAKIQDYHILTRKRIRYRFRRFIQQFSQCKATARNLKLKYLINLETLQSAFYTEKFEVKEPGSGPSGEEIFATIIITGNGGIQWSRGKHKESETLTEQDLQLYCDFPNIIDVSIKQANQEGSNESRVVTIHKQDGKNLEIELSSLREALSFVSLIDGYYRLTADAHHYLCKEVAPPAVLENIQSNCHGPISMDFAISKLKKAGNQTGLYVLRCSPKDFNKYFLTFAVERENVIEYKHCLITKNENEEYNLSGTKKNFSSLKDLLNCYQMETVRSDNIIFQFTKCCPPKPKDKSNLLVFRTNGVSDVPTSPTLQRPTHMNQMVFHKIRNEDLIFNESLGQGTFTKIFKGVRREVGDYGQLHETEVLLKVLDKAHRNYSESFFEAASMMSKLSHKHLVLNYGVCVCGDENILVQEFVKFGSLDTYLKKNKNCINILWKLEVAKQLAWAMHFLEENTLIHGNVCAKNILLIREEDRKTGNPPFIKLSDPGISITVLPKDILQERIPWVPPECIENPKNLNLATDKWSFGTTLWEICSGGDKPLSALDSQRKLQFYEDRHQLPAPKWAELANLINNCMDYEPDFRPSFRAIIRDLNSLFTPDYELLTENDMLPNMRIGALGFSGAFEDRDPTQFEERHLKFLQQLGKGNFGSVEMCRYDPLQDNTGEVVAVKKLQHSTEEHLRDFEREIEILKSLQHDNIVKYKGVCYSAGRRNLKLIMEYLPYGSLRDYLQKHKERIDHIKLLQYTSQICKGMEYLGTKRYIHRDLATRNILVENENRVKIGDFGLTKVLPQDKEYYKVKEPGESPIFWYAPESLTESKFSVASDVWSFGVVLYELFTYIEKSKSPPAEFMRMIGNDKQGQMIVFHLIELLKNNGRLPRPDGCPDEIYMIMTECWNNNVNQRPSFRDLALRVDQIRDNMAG
T1 sequence (P29597 whole entry): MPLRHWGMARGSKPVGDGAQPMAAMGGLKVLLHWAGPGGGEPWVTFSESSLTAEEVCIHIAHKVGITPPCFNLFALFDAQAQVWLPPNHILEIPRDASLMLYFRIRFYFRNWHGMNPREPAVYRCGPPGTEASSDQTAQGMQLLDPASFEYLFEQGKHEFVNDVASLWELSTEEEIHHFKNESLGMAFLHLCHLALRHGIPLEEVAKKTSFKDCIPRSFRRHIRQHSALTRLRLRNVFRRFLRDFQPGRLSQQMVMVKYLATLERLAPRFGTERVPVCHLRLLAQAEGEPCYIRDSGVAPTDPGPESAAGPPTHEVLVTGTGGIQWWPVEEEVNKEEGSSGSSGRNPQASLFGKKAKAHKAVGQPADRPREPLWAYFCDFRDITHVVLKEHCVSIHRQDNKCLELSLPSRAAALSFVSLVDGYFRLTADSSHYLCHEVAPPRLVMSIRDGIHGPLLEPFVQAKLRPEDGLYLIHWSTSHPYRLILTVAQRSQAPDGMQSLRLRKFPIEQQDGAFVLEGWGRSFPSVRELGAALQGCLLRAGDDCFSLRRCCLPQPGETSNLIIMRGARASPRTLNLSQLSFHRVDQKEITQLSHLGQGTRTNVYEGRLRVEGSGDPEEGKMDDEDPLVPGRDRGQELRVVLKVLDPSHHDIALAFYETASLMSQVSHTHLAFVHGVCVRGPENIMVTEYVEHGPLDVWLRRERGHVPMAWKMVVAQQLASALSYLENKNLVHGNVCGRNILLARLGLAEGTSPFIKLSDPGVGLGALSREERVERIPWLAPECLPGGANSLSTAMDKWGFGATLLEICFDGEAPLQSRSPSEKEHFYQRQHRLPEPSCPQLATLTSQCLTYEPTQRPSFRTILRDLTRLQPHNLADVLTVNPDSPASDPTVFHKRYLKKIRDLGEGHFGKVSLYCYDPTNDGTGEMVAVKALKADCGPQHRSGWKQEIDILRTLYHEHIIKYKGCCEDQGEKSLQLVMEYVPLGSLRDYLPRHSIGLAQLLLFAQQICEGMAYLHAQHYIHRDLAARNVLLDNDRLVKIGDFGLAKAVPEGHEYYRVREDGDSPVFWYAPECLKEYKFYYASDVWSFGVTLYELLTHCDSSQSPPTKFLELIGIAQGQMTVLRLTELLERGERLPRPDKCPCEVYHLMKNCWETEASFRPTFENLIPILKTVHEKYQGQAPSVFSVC

Structure (SMILES)	IC50 [1, 2]	Ki (Tyk2)	Ki (JAK3)	JAK3 (pKi)-JAK1 (pKi) (JAK3; [3])	Ki (JAK1)	Ki (JAK2)	Tall-1 (pIC50) [1]	Tyk 2 (pKi) (Tyk2)	JAK 3 (pKi) (JAK3)	JAK 1 (pKi) (JAK1)	JAK 2 (pKi) (JAK2)	IC50 [1, 4]	JAK3 (pKi)-JAK1 (pKi) (JAK3; [5])
C=CC(=O)N1CCSCC1C(=O)Nc1cc(-c2ccc(O)cc2)cc2[nH]ncc12 (stereo not drawn) [Compound 12-66]	31.6 to 200 nM	> 100 nM	0.1 to 1 nM	A (a value of 3 or above)	> 100 nM	> 100 nM	–	–	–	–	–	–	–
C=CC(=O)N1CC2(CC(Oc3nc(-c4ccc(O)c(Cl)c4)nc4[nH]ncc34)C2)C1 [Compound 15-9]	–	–	–	A (a value of 3 or above)	–	–	B (a pIC50 value between 6.7 (included) and 7.5 (IC50 between 200 nM and 32 nM))	E (a pKi value of 7 or below (Ki of 100 nM or above))	A (a pKi value≥10 (Ki≤0.1 nM))	E (a pKi value of 7 or below (Ki of 100 nM or above))	E (a pKi value of 7 or below (Ki of 100 nM or above))	–	–
C=CC(=O)N1CCC(Oc2nc(-c3ccc(O)cc3)cc3[nH]ncc23)CC1 [Compound 6-15]	31.6 to 200 nM	> 100 nM	0.1 to 1 nM	A (a value of 3 or above)	> 100 nM	10 to 100 nM	–	–	–	–	–	–	–
C=CC(=O)N1CC(Oc2cc(-c3ccc(O)c(F)c3)cc3[nH]ncc23)(C(F)F)C1 [Compound 5-22]	–	–	–	A (a value of 3 or above)	–	–	B (a pIC50 value between 6.7 (included) and 7.5 (IC50 between 200 nM and 32 nM))	E (a pKi value of 7 or below (Ki of 100 nM or above))	B (a pKi value between 9 and 10 (Ki between 1 nM and 0.1 nM))	E (a pKi value of 7 or below (Ki of 100 nM or above))	E (a pKi value of 7 or below (Ki of 100 nM or above))	–	–
C=CC(=O)N1CC(COc2nc(-c3ccc(O)c(F)c3)cc3[nH]ncc23)C1 [Compound 3-37]	–	> 100 nM	< 0.1 nM	–	> 100 nM	10 to 100 nM	–	–	–	–	–	< 31.6 nM	A (a value of 3 or above)
C=CC(=O)N1CC[C@H](Oc2cc(-c3ccc(O)c(F)c3Cl)cc3[nH]ncc23)C1 [Compound 1-15]	–	> 100 nM	< 0.1 nM	–	> 100 nM	> 100 nM	–	–	–	–	–	31.6 to 200 nM	A (a value of 3 or above)
C=CC(=O)N1CCCC(Oc2nc(-c3ccc(O)cc3)cc3[nH]ncc23)C1 (stereo not drawn) [Compound 8-7]	–	–	–	A (a value of 3 or above)	–	–	B (a pIC50 value between 6.7 (included) and 7.5 (IC50 between 200 nM and 32 nM))	E (a pKi value of 7 or below (Ki of 100 nM or above))	B (a pKi value between 9 and 10 (Ki between 1 nM and 0.1 nM))	E (a pKi value of 7 or below (Ki of 100 nM or above))	D (a pKi value between 7 and 8 (Ki between 100 nM and 10 nM))	–	–
C=CC(=O)N1CCC(C)(Nc2cc(-c3ccc(O)cc3)cc3[nH]ncc23)CC1 [Compound 7-2]	–	–	–	A (a value of 3 or above)	–	–	A (a pIC50 value≥7.5 (IC50≤32 nM))	E (a pKi value of 7 or below (Ki of 100 nM or above))	B (a pKi value between 9 and 10 (Ki between 1 nM and 0.1 nM))	E (a pKi value of 7 or below (Ki of 100 nM or above))	D (a pKi value between 7 and 8 (Ki between 100 nM and 10 nM))	–	–
COC1(C)CN(C/C=C/C(=O)N2CC(COc3cc(-c4ccc(O)cc4)cc4[nH]ncc34)C2)C1 [Compound 3-133]	–	> 100 nM	< 0.1 nM	–	> 100 nM	10 to 100 nM	–	–	–	–	–	200 to 1000 nM	A (a value of 3 or above)

Reference: patent US10392368B2, “Pyrazolo and triazolo bicyclic compounds as JAK kinase inhibitors” (THERAVANCE BIOPHARMA R&D IP, LLC, priority 2017, dated 2019)
